Data on one molecule can be found in PMC8123576 (International Journal of Molecular Sciences, 2021).

Where two headings read alike, the source gives them in different places.

The nature of data set [1]: Cytotoxicity assay (CellTiter 96 AQueous One) on HFL1. The data set is classed as cell-based, human. Particulars: human, HFL1 normal lung cells, HFL1, 24 h, dose 0 = 100.00, read-out: Growth inhibition data. As to the method:
(§1) The best antifungal and/or antiaflatoxigenic compounds were tested to determine their cytotoxic activity against human normal cell lines deriving from lung (HFL1, ATCC and CCL-153), skin (Hs27, ATCC, CRL1634) and colon (Crl1790, ATCC, CCD 841 CoN) and a cell line deriving from a hematological tumor (U937, ATCC and CRL-3253). These different cell lines have been chosen to simulate the different human exposition routes to pesticide. Cell culture conditions have been previously reported. Compound cytotoxicity was determined using CellTiter 96® AQueous One Solution Cell Proliferation Assay (Promega Corporation, Madison, WI, USA). The very detailed protocol was described by Bartoli et al.. In brief, cells were seeded in a 96-well plate at a density of 5000 cells/well and after 24 h cells were treated with different concentrations of the compounds (0.5–1–5–10–50–100 µM). After the treatment period (24 h), the CellTiter Reagent was added to each well (20 µL/well) and the plate incubated for 4 h at 37 °C. The plate was then read at 485 nm in a multiwell plate reader (TECAN SpectraFluor Plus, Männedorf, Switzerland).

The subject of a further data set is HFL1 cells. Described as above. As to conditions: HFL1 cells, 24 h treatment. The data set is classed as cell-based, human. As to the method: as §1
The test system of the next data set is A. cepa root cells. Particulars: for MN (micronuclei frequency): NC 1.10 ± 1.28; for CA (aberrated cells / total cells in mitosis): NC 1.2. As to the method: To detect micronuclei and chromosomal aberrations six equal-sized pre-germinated young bulbs per sample were exposed for 24 h to sample dilutions. The bulbs dedicated to the micronuclei test underwent an additional treatment in the saline solution for 44 h of recovery time to cover two rounds of mitosis so that damage induced in chromosomes during mitosis to be visible as micronuclei in interphase cells. Then all the roots were fixed in acetic acid and ethanol (1:3) for 24 h and lastly stored in 70% ethanol. The negative control was DMSO in Rank’s solution (the dose of DMSO corresponding to volume of samples) and positive control was maleic hydrazide (10^−2 M, 6 h exposure). […] All experiments were performed in duplicate.

Take `CC(=NNC(N)=S)c1cccs1` [2-actpTS, 2-acetylthiophenethiosemicarbazone]: the viability at 24 h, 0.5 µM in data set [1] (0.5 µM) stood at 100 ± 11.1%. Further, the viability at 24 h, 1 µM in data set [1] (1 µM) was found to be 100 ± 6.11%. Moreover, in data set [1] (5 µM), the viability at 24 h, 5 µM was determined as 100 ± 5.74%. Moreover, in data set [1] (10 µM), the viability at 24 h, 10 µM was 100 ± 6.76%. Further, in data set [1] (50 µM), the viability at 24 h, 50 µM worked out at 100 ± 4.53%. Moreover, the viability at 24 h, 100 µM in data set [1] (100 µM) was 92.5 ± 3.49%. Besides, in the data set on HFL1 cells, the “50% inhibition of cell proliferation” value was “did not induce 50% inhibition of cell proliferation”. In addition, the results for the “MN (micronuclei frequency)” value with A. cepa root cells (10 µM), in the data set with A. cepa root cells (25 µM) and in the data set with A. cepa root cells (50 µM) were 1.20 ± 0.83%, 1.40 ± 1.14% and 2.00 ± 1.58%, respectively. Further, the “CA (aberrated cells / total cells in mitosis)” value in the data set with A. cepa root cells (10 µM) turned out to be 2.7%; with A. cepa root cells (25 µM), 4.7%; in the data set with A. cepa root cells (50 µM), 6.3%; with A. cepa root cells (100 µM), 6.0%. Further, the “toxicity to roots in the micronuclei test” value with A. cepa root cells (100 µM dose) was “highly toxic”.
